Test results taken from ChEMBL document CHEMBL2434918, “QM-polarized ligand docking accurately predicts the trend in binding affinity of a series of arylmethylene quinuclidine-like derivatives at the α4β2 and α3β4 nicotinic acetylcholine receptors (nAChRs)” (Bioorg Med Chem Lett, 2013).

How the values were obtained:
[1] = biological target: T1, Neuronal acetylcholine receptor; alpha4/beta2 (Homo sapiens, UniProt P17787+P43681); assay: Agonist activity at human alpha4beta2 nAChR expressed in human SH-EP1 cells assessed as induction of electrophysiological response at 0.1 uM by patch clamp method relative to acetylcholine; format: cell-based
[2] = biological target: T1, Neuronal acetylcholine receptor; alpha4/beta2; assay: Agonist activity at human alpha4beta2 nAChR expressed in human SH-EP1 cells assessed as induction of electrophysiological response at 10 uM by patch clamp method relative to acetylcholine; format: cell-based
[3] = biological target: T1, Neuronal acetylcholine receptor; alpha4/beta2; assay: Agonist activity at human alpha4beta2 nAChR expressed in human SH-EP1 cells assessed as induction of intracellular Ca2+ influx by FLIPR assay; format: cell-based
[4] = biological target: T1, Neuronal acetylcholine receptor; alpha4/beta2; assay: Agonist activity at human alpha4beta2 nAChR expressed in human SH-EP1 cells assessed as induction of electrophysiological response at 1 uM by patch clamp method relative to acetylcholine; format: cell-based
[5] = biological target: T1, Neuronal acetylcholine receptor; alpha4/beta2; assay: Agonist activity at human alpha4beta2 nAChR expressed in human SH-EP1 cells assessed as induction of intracellular Ca2+ influx by FLIPR assay relative to nicotine; format: cell-based
[6] = biological target: T1, Neuronal acetylcholine receptor; alpha4/beta2; assay: Displacement of [3H]nicotine from human alpha4beta2 nAChR expressed in human SH-EP1 cell membranes after 2 hrs by liquid scintillation counting analysis

T1 sequence (P17787 whole entry): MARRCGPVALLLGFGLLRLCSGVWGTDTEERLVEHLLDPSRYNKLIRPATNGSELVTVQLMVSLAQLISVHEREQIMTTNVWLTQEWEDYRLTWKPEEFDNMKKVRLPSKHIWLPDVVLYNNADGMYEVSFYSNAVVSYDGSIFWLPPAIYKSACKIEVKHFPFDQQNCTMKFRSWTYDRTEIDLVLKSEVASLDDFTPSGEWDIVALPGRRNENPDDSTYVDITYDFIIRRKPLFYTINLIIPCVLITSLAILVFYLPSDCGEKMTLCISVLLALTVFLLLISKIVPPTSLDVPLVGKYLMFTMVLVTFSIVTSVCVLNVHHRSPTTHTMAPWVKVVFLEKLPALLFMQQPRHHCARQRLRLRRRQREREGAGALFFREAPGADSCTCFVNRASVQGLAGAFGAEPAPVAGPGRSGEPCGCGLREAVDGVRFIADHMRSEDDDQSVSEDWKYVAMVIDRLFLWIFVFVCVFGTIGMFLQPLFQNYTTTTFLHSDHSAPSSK
T1 sequence (P43681 whole entry): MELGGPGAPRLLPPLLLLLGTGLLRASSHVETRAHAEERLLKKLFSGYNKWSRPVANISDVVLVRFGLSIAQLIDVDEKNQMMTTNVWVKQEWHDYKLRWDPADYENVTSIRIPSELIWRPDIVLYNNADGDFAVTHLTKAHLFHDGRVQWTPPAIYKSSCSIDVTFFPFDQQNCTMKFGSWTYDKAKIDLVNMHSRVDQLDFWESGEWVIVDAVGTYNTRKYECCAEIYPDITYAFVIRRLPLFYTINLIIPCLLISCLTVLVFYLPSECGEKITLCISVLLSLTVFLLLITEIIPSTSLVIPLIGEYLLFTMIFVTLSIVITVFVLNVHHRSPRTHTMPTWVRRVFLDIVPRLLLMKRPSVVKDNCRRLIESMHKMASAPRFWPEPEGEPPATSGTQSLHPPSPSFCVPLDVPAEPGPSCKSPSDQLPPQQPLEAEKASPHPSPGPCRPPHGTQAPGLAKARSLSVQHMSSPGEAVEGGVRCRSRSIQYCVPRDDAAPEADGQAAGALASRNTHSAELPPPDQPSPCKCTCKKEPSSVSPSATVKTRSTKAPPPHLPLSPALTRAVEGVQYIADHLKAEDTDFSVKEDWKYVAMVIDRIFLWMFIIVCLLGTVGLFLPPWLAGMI

Structure (SMILES)	Activity [1] [%]	Activity [2] [%]	EC50 [3] [nM]	Activity [4] [%]	Emax [5] [%]	Ki [6] [nM]
C(=C1/CN2CCC1CC2)/c1ccccc1	2	2	> 10000	3	11	1600
C(=C1/CN2CCC1CC2)/c1cccnc1	4	24	> 10000	11	18	6
c1ccc(C(=C2CN3CCC2CC3)c2ccccc2)cc1	0.6	2	–	2	6	90
c1ccc(C(c2ccccc2)[N+]23CCN(CC2)CC3)cc1	1	1	–	3	< 5	> 10000
C(CN1CCCCC1)=C(c1ccccc1)c1ccccc1	0.8	1	–	2	9	160
N#C/C(=C1\CN2CCC1CC2)c1ccccc1	3	2	–	2	< 5	1100
c1ccc(C[N+]23CCC(CC2)C(=C(c2ccccc2)c2ccccc2)C3)cc1	2	1	–	2	< 5	7000
